Laboratory results from patent US20260335300A1, “Synthetic Nicotine Analogue Formulation For Nicotine Replacement and Amplication” (priority 2023, published 2026).

Key:
[1] = background statement, cited from earlier work; for satisfaction and 'throat-hit' sensation: novel tobacco products; for satisfaction in oral and nasal products: novel oral and nasal nicotine products
[2] = test system: rats; settings: acute oral
[3] = in vivo; settings: rat, po
[4] = Chemical stability in air / exposure to atmosphere for 24 hours, discoloration, blending; assay type: physicochemical
[5] = Solubility in appropriate solvents; assay type: physicochemical; settings: in the appropriate solvents
[6] = test system: mice; settings: mouse, in vivo
[7] = test system: rats; settings: comparison value; cited from earlier work
[8] = test system: mice; settings: comparison value; cited from earlier work

CN1CCCC1c1cccnc1 (racemic) [racemic nicotine]
satisfaction and 'throat-hit' sensation [1]: does not induce the distinctive satisfaction and ‘throat-hit’ sensation

Cc1ccc([C@H]2CCCN2C)cn1 [(R)-6-Methylnicotine, reference compound]
efficacy as nicotine analogue and flavor (enantiomer, no test described): not effective as a nicotine analogue, and contributes to unpleasant flavors

Cc1ccc([C@@H]2CCCN2C)cn1.O=C(O)c1ccccc1 [(S)-6-Methylnicotine benzoate]
reduction in toxicity versus nicotine on an equivalent effective use basis ([2]; equivalent effective use basis): 2 order of magnitude | toxicity relative to nicotine ([2]; versus nicotine): half to one quarter as toxic | LD50 [3]: 120 to 215 mg/kg

Cc1ccc([C@@H]2CCCN2C)cn1 [(S)-6-Methylnicotine, (S)-2-methyl-5-(1-methylpyrrolidin-2-yl)pyridine]
chemical stability compared to nicotine ([4]; degradation and discoloration): more chemically stable than nicotine, and resists degradation and discoloration | lifetime in the air relative to nicotine ([4]; in the air, versus nicotine, may potentially): ≤ 5 times | stability when blended with other compounds ([4]; versus nicotine, blended with other compounds): more stable than nicotine when blended with other compounds | resistance to higher temperatures ([4]; versus nicotine, may): may be able to resist higher temperatures | relief from cravings / subjective hit sensation (in words): induces a subjective “hit” sensation which satisfies cravings | onset of action compared to nicotine (preliminary, versus nicotine): may be faster acting | solubility [5]: acceptable for all of the aforementioned applications | reduction of oral toxicity versus nicotine [6]: ~3 order of magnitude | toxicity compared to nicotine, in words ([6]; po): both less toxic, and can be used in lower amounts than nicotine

COC(=O)C1=CCCN(C)C1 [arecoline]
satisfaction in oral and nasal products [1]: limited satisfaction due to a lack of satisfactory sensations | satisfaction and 'throat-hit' sensation [1]: lack of satisfaction and ‘throat-hit’ sensation

O=c1cccc2n1C[C@@H]1CNC[C@H]2C1 [cytisine]
satisfaction in oral and nasal products [1]: limited satisfaction due to a lack of satisfactory sensations | satisfaction and 'throat-hit' sensation [1]: lack of satisfaction and ‘throat-hit’ sensation

CN1CCCC1c1cccnc1 (stereo not drawn) [nicotine]
acute oral LD50 of nicotine [7]: 50 mg/kg | yellowing on exposure to atmosphere ([4]; exposed to atmosphere for 24 hours): yellowing was observed sooner than (S)-6-Methylnicotine | acute oral LD50 of nicotine [8]: about 3.3 mg/kg BW
